Values of other authors in patent publication US20110045550A1, “Fission Yeast Expressing Cytochrome P450 Reductase” (priority 2007, published 2011).

Assays:
[1] = target: human P-glycoprotein ATPases (ABCB1 subfamily) (Homo sapiens, UniProt P08183)
[2] = pH=8.5

human P-glycoprotein ATPases (ABCB1 subfamily), sequence (P08183 whole entry): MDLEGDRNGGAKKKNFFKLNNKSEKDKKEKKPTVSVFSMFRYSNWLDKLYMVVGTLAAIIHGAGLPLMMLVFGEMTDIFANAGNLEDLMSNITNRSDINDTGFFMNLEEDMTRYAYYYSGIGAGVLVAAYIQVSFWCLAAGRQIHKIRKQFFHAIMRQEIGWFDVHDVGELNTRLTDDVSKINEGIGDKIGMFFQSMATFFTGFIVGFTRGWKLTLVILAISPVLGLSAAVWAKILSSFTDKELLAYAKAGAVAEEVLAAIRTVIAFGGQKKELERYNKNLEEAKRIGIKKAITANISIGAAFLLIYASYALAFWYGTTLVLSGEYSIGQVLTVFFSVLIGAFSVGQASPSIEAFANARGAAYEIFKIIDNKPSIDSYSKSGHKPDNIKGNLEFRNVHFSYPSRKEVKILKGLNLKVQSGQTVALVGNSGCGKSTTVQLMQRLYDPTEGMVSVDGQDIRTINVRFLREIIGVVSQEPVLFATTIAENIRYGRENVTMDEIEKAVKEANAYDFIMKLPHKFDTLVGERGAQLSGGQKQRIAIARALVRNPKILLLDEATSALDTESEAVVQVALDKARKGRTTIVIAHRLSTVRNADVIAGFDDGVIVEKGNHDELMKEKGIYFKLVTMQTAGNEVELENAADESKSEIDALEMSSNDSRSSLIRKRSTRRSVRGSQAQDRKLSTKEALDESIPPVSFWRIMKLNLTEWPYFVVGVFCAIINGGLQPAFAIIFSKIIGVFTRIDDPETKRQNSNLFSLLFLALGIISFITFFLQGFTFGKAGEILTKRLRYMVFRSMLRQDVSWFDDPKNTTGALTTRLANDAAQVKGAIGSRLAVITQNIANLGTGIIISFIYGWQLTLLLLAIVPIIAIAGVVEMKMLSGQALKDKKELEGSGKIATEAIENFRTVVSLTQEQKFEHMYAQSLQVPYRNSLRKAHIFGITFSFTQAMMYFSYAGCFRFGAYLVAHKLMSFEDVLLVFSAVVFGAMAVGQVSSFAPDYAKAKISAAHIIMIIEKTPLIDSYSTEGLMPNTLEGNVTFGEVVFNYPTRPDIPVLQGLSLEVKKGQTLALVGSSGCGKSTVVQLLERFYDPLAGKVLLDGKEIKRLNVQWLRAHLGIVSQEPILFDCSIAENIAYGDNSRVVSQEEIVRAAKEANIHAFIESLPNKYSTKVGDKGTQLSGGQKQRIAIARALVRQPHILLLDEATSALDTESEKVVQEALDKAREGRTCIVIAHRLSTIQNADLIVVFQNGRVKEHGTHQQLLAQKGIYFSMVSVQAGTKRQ

SMILES | substrate for human P-glycoprotein [1] | solubility [2]
CC(NC(C)(C)C)C(=O)c1cccc(Cl)c1 (stereo not drawn) [bupropion] | weak substrate | 
Cc1ncc2n1-c1ccc(Cl)cc1C(c1ccccc1F)=NC2 [midazolam] | very good substrate | around 150 μM
